Test results published in US5453439A, “Hydroxylamine derivatives” (Zeneca Limited, priority 1992, dated 1995).

Assays:
5-LO = biological target: T1, 5-LO (Homo sapiens, UniProt P09917); test: Test a) in vitro heparinised human blood, A23187 challenge, LTB4 radioimmunoassay (indirect inhibition of 5-LO); format: cell-based
T1 construct: incubating a test compound with heparinised human blood; endogenous in cells; host or cells: heparinised human blood (blood cells; A23187 challenge)
T1 sequence (P09917 1-674): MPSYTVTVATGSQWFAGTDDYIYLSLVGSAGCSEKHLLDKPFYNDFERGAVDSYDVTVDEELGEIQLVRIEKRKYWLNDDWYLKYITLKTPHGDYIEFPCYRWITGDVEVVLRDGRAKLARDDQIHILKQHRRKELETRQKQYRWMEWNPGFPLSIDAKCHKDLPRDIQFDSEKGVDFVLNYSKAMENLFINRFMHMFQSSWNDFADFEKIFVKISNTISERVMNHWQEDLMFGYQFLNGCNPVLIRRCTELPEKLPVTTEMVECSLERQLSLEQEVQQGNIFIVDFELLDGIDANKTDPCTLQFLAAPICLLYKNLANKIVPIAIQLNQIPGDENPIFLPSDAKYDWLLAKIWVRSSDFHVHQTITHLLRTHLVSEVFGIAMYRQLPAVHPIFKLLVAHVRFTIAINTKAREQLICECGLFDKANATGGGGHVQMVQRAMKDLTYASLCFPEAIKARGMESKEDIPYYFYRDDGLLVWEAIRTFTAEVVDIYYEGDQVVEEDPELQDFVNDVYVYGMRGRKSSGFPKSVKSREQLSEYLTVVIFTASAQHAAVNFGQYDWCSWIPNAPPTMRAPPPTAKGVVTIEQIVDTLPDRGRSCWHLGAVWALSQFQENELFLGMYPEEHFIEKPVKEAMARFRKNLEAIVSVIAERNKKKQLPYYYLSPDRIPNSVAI
Protocol: a) An in vitro assay system involving incubating a test compound with heparinised human blood, prior to challenge with the calcium ionophore A^23187 and then indirectly measuring the inhibitory effects on 5-LO by assaying the amount of LTB4 using specific radioimmunoassays described by Carey and Forder (Prostaglandins, Leukotrienes Med., 1986, 22, 57; Prostaglandins, 1984, 28, 666; Brit. J. Pharmacol., 1985, 84, 34P) which involves the use of a protein-LTB4 conjugate produced using the procedure of Young et alia (Prostaglandins, 1983, 26(4), 605-613). The effects of a test compound on the enzyme cyclooxygenase (which is involved in the alternative metabolic pathway for arachidonic acid and gives rise to prostaglandins, thromboxanes and related metabolites) may be measured at the same time using the specific radioimmunoassay for thromboxane B2 (TxB2) described by Carey and Forder (see above). This test provides an indication of the effects of a test compound against 5-LO and also cyclooxygenase in the presence of blood cells and proteins. It permits the selectivity of the inhibitory effect on 5-LO or cyclooxygenase to be assessed.

[1] = test system: LTB4 liberation induced by zymosan (5-LO); test: Test c) in vivo zymosan-induced LTB4 liberation in rat subcutaneous air pouch, oral administration; settings: 3 h; test c)
Protocol: c) An in vivo system involving measuring the effects of a test compound administered orally against the liberation of LTB4 induced by zymosan within an air pouch generated within the subcutaneous tissue of the back of male rats. The rats are anaesthetised and air pouches are formed by the injection of sterile air (20 ml). A further injection of air (10 ml) is similarly given after 3 days. At 6 days after the initial air injection the test compound is administered (usually orally as the suspension produced when a solution of the test compound in dimethylsulphoxide is added to hydroxypropylmethylcellulose), followed by the intrapouch injection of zymosan (1 ml of a 1% suspension in physiological saline). After 3 hours the rats are killed, the air pouches are lavaged with physiological saline, and the specific radioimmunoassay described above is used to assay LTB4 in the washings. This test provides an indication of inhibitory effects against 5-LO in an inflammatory milieu.

| IC50 (5-LO) [nM] | Compound | ED50 [1] [mg/kg] |
| --- | --- | --- |
| 570 | COC1(c2cc(F)cc(Sc3ccc(C(C)N(O)C(N)=O)cc3)c2)CCOCC1 (stereo not drawn) [N-{4-[5-fluoro-3-(4-methoxytetrahydropyran-4-yl)phenylthio]-α-methylbenzyl)-N-hydroxyurea] | ~0.5 |
| 40 | CONC(C)c1ccc(Sc2cc(F)cc(C3(OC)CCOCC3)c2)cc1 (stereo not drawn) [N-{4-[5-fluoro-3-(4-methoxytetrahydropyran-4-yl)phenylthio]-α-methylbenzyl}-O-methylhydroxylamine] | ~0.5 |
| 150 | COC1(c2cc(F)cc(Sc3ccc(C(C)N(OC(C)=O)C(C)=O)cc3)c2)CCOCC1 (stereo not drawn) [O-acetyl-N-{4-[5-fluoro-3-(4-methoxytetrahydropyran-4-yl)phenylthio]-α-methylbenzyl}acetohydroxamic acid] | ~0.5 |
